Measured values: the NIST ThermoML archive (doi:10.1021/acs.jced.5b00980)
Numbers after ± are expanded uncertainties.

Tests used:
[1] = activity coefficient (dimensionless); of the first substance listed, at infinite dilution; xn = mol fraction of the nth substance listed; conditions: 100 kPa, Liquid, Chromatography, x1 = 0
[2] = for mass density: 101.33 kPa, Liquid, Vibrating tube method

| Structure (SMILES) | activity coefficient ([1]; 328.15 K) | activity coefficient ([1]; 338.15 K) | activity coefficient ([1]; 348.15 K) | activity coefficient ([1]; 358.15 K) | activity coefficient ([1]; 368.15 K) | also measured |
| --- | --- | --- | --- | --- | --- | --- |
| CCCCCCCCC [nonane] + CCCC[P+](CC)(CCCC)CCCC.CCOP(=O)([O-])OCC | 5.79 ± 0.39 | 5.6 ± 0.38 | 5.43 ± 0.37 | 5.27 ± 0.36 | 5.13 ± 0.35 | – |
| C=CCCCCCC [oct-1-ene] + CCCC[P+](CC)(CCCC)CCCC.CCOP(=O)([O-])OCC | 3.68 ± 0.25 | 3.6 ± 0.25 | 3.52 ± 0.24 | 3.45 ± 0.23 | 3.39 ± 0.23 | – |
| CCCCCCCC [octane] + CCCC[P+](CC)(CCCC)CCCC.CCOP(=O)([O-])OCC | 4.87 ± 0.33 | 4.74 ± 0.32 | 4.6 ± 0.31 | 4.47 ± 0.3 | 4.37 ± 0.3 | – |
| CCCC(C)=O [pentan-2-one] + CCCC[P+](CC)(CCCC)CCCC.CCOP(=O)([O-])OCC | 1.03 ± 0.06 | 1.03 ± 0.06 | 1.02 ± 0.06 | 1.02 ± 0.06 | 1.01 ± 0.06 | – |
| CCC(=O)CC [pentan-3-one] + CCCC[P+](CC)(CCCC)CCCC.CCOP(=O)([O-])OCC | 1.02 ± 0.06 | 1.02 ± 0.06 | 1.02 ± 0.06 | 1.02 ± 0.06 | 1.02 ± 0.06 | – |
| CCCCC [pentane] + CCCC[P+](CC)(CCCC)CCCC.CCOP(=O)([O-])OCC | 2.91 ± 0.2 | 2.85 ± 0.19 | 2.8 ± 0.19 | 2.75 ± 0.19 | 2.7 ± 0.18 | – |
| c1ccncc1 [pyridine] + CCCC[P+](CC)(CCCC)CCCC.CCOP(=O)([O-])OCC | 0.544 ± 0.04 | 0.545 ± 0.04 | 0.548 ± 0.04 | 0.549 ± 0.04 | 0.55 ± 0.04 | – |
| C=Cc1ccccc1 [styrene] + CCCC[P+](CC)(CCCC)CCCC.CCOP(=O)([O-])OCC | 0.971 ± 0.061 | 0.975 ± 0.061 | 0.98 ± 0.061 | 0.983 ± 0.062 | 0.987 ± 0.062 | – |
| C1CCOC1 [tetrahydrofuran] + CCCC[P+](CC)(CCCC)CCCC.CCOP(=O)([O-])OCC | 0.938 ± 0.059 | 0.926 ± 0.059 | 0.919 ± 0.058 | 0.907 ± 0.058 | 0.899 ± 0.057 | – |
| c1ccsc1 [thiophene] + CCCC[P+](CC)(CCCC)CCCC.CCOP(=O)([O-])OCC | 0.58 ± 0.041 | 0.587 ± 0.042 | 0.595 ± 0.042 | 0.601 ± 0.042 | 0.607 ± 0.042 | – |
| Cc1ccccc1 [toluene] + CCCC[P+](CC)(CCCC)CCCC.CCOP(=O)([O-])OCC | 1.2 ± 0.08 | 1.19 ± 0.08 | 1.18 ± 0.08 | 1.16 ± 0.07 | 1.15 ± 0.07 | – |
| CCCC[P+](CC)(CCCC)CCCC.CCOP(=O)([O-])OCC [tributylethylphosphonium diethylphosphate] | – | – | – | – | – | mass density ([2]; 298.15 K): 996.1 ± 10 kg/m3; mass density ([2]; 303.15 K): 992.58 ± 10 kg/m3; mass density ([2]; 308.15 K): 989.06 ± 10 kg/m3; mass density ([2]; 313.15 K): 985.55 ± 10 kg/m3; mass density ([2]; 318.15 K): 982.04 ± 10 kg/m3; mass density ([2]; 323.15 K): 978.53 ± 10 kg/m3; mass density ([2]; 328.15 K): 975.03 ± 10 kg/m3; mass density ([2]; 333.15 K): 971.53 ± 10 kg/m3; mass density ([2]; 338.15 K): 968.03 ± 10 kg/m3; mass density ([2]; 343.15 K): 964.53 ± 10 kg/m3; mass density ([2]; 348.15 K): 961.01 ± 10 kg/m3; mass density ([2]; 353.15 K): 957.5 ± 10 kg/m3; mass density ([2]; 358.15 K): 954 ± 10 kg/m3; mass density ([2]; 363.15 K): 950.49 ± 10 kg/m3; mass density ([2]; 368.15 K): 946.98 ± 10 kg/m3; Glass transition temperature ([2]; Glass, DSC): -71.34 ± 1 °C |
| O [water] + CCCC[P+](CC)(CCCC)CCCC.CCOP(=O)([O-])OCC | 0.101 ± 0.03 | 0.105 ± 0.03 | 0.109 ± 0.03 | 0.112 ± 0.03 | 0.116 ± 0.03 | – |
